Experimental data: PubChem BioAssay (NCI)
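These data come from cells grown in 96-well plates and exposed to compound for 48 hours at five concentrations. TGI is the concentration that stops growth completely.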

What was measured:
Test in all cases: NCI anticancer screen, dose series, 48 h
786-0 renal = tested on: 786-0 renal
CCRF-CEM leukemia = tested on: CCRF-CEM leukemia
EKVX NSCLC = tested on: EKVX NSCLC
HS 578T breast = tested on: HS 578T breast
M14 melanoma = tested on: M14 melanoma
MDA-MB-435 = tested on: MDA-MB-435
MOLT-4 leukemia = tested on: MOLT-4 leukemia
NCI-H23 lung = tested on: NCI-H23 lung
OVCAR-3 ovarian = tested on: OVCAR-3 ovarian
SNB-19 CNS = tested on: SNB-19 CNS
SR leukemia = tested on: SR leukemia
T-47D breast = tested on: T-47D breast
U251 CNS = tested on: U251 CNS
UACC-257 melanoma = tested on: UACC-257 melanoma
UACC-62 melanoma = tested on: UACC-62 melanoma
UO-31 renal = tested on: UO-31 renal
NCI-H522 lung = tested on: NCI-H522 lung

Measured: TGI

C/C(=N\NS(=O)(=O)c1ccc(C)cc1)c1ccccn1
78.9 µM: CCRF-CEM leukemia
> 100 µM: 786-0 renal | EKVX NSCLC | HS 578T breast | M14 melanoma | MDA-MB-435 | MOLT-4 leukemia | NCI-H23 lung | OVCAR-3 ovarian | SNB-19 CNS | SR leukemia | T-47D breast | U251 CNS | UACC-257 melanoma | UACC-62 melanoma | UO-31 renal

OCC12C=CC(C1)c1ccccc12 (stereo not drawn)
> 100 µM: 786-0 renal | CCRF-CEM leukemia | M14 melanoma | MOLT-4 leukemia | NCI-H23 lung | OVCAR-3 ovarian | SNB-19 CNS | SR leukemia | U251 CNS | UACC-257 melanoma | UACC-62 melanoma | UO-31 renal

O=S(Cc1ccccc1)c1nc2ccccc2nc1-c1cccs1 (stereo not drawn)
25.4 µM: M14 melanoma
33.8 µM: NCI-H23 lung
26.5 µM: UACC-257 melanoma
33.5 µM: U251 CNS
23.4 µM: 786-0 renal
3.4 µM: NCI-H522 lung
> 100 µM: CCRF-CEM leukemia | MOLT-4 leukemia
24 µM: OVCAR-3 ovarian
60.6 µM: EKVX NSCLC
39.4 µM: SNB-19 CNS
41 µM: UO-31 renal

O=C1/C(=C/C=C/c2ccccc2)CCC1CNc1ccccc1 (stereo not drawn)
> 68.9 µM: OVCAR-3 ovarian
> 89.8 µM: SNB-19 CNS
27.5 µM: CCRF-CEM leukemia
> 22.7 µM: NCI-H522 lung
41.2 µM: 786-0 renal
> 100 µM: EKVX NSCLC | HS 578T breast | M14 melanoma | MOLT-4 leukemia | SR leukemia | U251 CNS | UACC-257 melanoma | UACC-62 melanoma | UO-31 renal
> 68.4 µM: T-47D breast
> 80.9 µM: NCI-H23 lung
> 86 µM: MDA-MB-435

CC1(C)OCN(c2ccc(N3CCOCC3)cc2)Cn2c1nc1ccccc12
> 100 µM: 786-0 renal | CCRF-CEM leukemia | EKVX NSCLC | M14 melanoma | MOLT-4 leukemia | NCI-H23 lung | NCI-H522 lung | OVCAR-3 ovarian | SNB-19 CNS | U251 CNS | UACC-257 melanoma | UACC-62 melanoma | UO-31 renal
92.7 µM: SR leukemia

CN(C)/C=C/C(=CC=[N+](C)C)/C=C/N(C)C
> 100 µM: 786-0 renal | CCRF-CEM leukemia | M14 melanoma | MOLT-4 leukemia | NCI-H23 lung | NCI-H522 lung | OVCAR-3 ovarian | SNB-19 CNS | SR leukemia | U251 CNS | UACC-257 melanoma | UACC-62 melanoma | UO-31 renal

CCN1C[C@]2(C)CC[C@H](O)C34C1C(C[C@@H]32)[C@@]1(O)CC[C@H]2C[C@@H]4[C@@H]1[C@H]2O
> 100 µM: 786-0 renal | CCRF-CEM leukemia | M14 melanoma | MOLT-4 leukemia | NCI-H23 lung | NCI-H522 lung | OVCAR-3 ovarian | SNB-19 CNS | SR leukemia | U251 CNS | UACC-257 melanoma | UACC-62 melanoma | UO-31 renal

CCC1=CCN(c2cc(C)ccn2)OC1c1ccc(OC)cc1 (stereo not drawn)
82.4 µM: MOLT-4 leukemia
44.1 µM: U251 CNS
68.5 µM: SR leukemia
52.1 µM: NCI-H522 lung
85.7 µM: CCRF-CEM leukemia
> 100 µM: 786-0 renal | EKVX NSCLC | M14 melanoma | NCI-H23 lung | OVCAR-3 ovarian | SNB-19 CNS | UACC-62 melanoma | UO-31 renal
86.1 µM: UACC-257 melanoma

COc1ccc2nc3cc(Cl)ccc3c(Sc3ccc([N+](=O)[O-])cc3C)c2c1
> 100 µM: 786-0 renal | CCRF-CEM leukemia | EKVX NSCLC | M14 melanoma | MOLT-4 leukemia | NCI-H23 lung | NCI-H522 lung | OVCAR-3 ovarian | SNB-19 CNS | SR leukemia | U251 CNS | UACC-257 melanoma | UACC-62 melanoma | UO-31 renal

Cc1cc(C)c2c(=O)cc(-c3cccc4ccccc34)[nH]c2n1
0.513 µM: MDA-MB-435
> 61.6 µM: NCI-H23 lung | UACC-62 melanoma
> 51.8 µM: SNB-19 CNS
> 100 µM: 786-0 renal | CCRF-CEM leukemia | EKVX NSCLC | HS 578T breast | SR leukemia | T-47D breast | UO-31 renal
42.7 µM: MOLT-4 leukemia
> 51.4 µM: M14 melanoma
23.8 µM: U251 CNS

CCCCCCNCCc1cnc[nH]1
> 100 µM: 786-0 renal | CCRF-CEM leukemia | EKVX NSCLC | HS 578T breast | M14 melanoma | MDA-MB-435 | MOLT-4 leukemia | NCI-H23 lung | NCI-H522 lung | OVCAR-3 ovarian | SNB-19 CNS | SR leukemia | T-47D breast | U251 CNS | UACC-257 melanoma | UACC-62 melanoma | UO-31 renal

CCC(CC)NC1=C(NC(C)=O)C(=O)c2ccccc2C1=O
> 50 µM: 786-0 renal | CCRF-CEM leukemia | EKVX NSCLC | M14 melanoma | MOLT-4 leukemia | NCI-H23 lung | NCI-H522 lung | OVCAR-3 ovarian | SNB-19 CNS | SR leukemia | U251 CNS | UACC-257 melanoma | UACC-62 melanoma | UO-31 renal

CCOC1C(Br)Cn2c(=O)c3cc4ccccc4cc3c(=O)n2C1C (stereo not drawn)
> 100 µM: 786-0 renal | CCRF-CEM leukemia | EKVX NSCLC | M14 melanoma | NCI-H23 lung | OVCAR-3 ovarian | SNB-19 CNS | SR leukemia | U251 CNS | UACC-257 melanoma | UO-31 renal
94 µM: MOLT-4 leukemia

O=C(NN1C(=O)C(Cl)C1c1ccc(Cl)cc1)c1c(Cl)c(Cl)c(Cl)c(Cl)c1-c1nc2ccccc2[nH]1 (stereo not drawn)
88.7 µM: EKVX NSCLC
33.9 µM: UACC-62 melanoma
47.4 µM: 786-0 renal
80.5 µM: MDA-MB-435
69 µM: NCI-H23 lung
74.9 µM: M14 melanoma
39.7 µM: NCI-H522 lung
> 100 µM: CCRF-CEM leukemia | HS 578T breast | MOLT-4 leukemia | OVCAR-3 ovarian | SNB-19 CNS | SR leukemia | UACC-257 melanoma | UO-31 renal
25 µM: T-47D breast
